Results taken from patent US20100040544A1, “METHOD FOR MANAGING PATIENTS WITH CANCER” (priority 2006, published 2010).

Experiment: T1 relaxation in human full blood
Assay type: physicochemical
Settings: in human full blood at 37° C.

CC(=O)[13C](=O)O [^13C1-pyruvate]
T1 relaxation: about 42 s
